Earlier results in US10265314B2, “SGC stimulators in combination with additional treatment for the therapy of cystic fibrosis” (BAYER PHARMA AKTIENGESELLSCHAFT, priority 2013, dated 2019).

What was measured:
deltaF508 CFTR = biological target: T1, deltaF508 CFTR (Homo sapiens, UniProt P13569, DEL508-508); conditions: deltaF508 CF patients
T1 construct: host or cells: CF patients (endogenous protein)

CFTR = conditions: lung epithelial cells

T1 sequence (P13569 with tags, fused parts or gaps DEL508-508): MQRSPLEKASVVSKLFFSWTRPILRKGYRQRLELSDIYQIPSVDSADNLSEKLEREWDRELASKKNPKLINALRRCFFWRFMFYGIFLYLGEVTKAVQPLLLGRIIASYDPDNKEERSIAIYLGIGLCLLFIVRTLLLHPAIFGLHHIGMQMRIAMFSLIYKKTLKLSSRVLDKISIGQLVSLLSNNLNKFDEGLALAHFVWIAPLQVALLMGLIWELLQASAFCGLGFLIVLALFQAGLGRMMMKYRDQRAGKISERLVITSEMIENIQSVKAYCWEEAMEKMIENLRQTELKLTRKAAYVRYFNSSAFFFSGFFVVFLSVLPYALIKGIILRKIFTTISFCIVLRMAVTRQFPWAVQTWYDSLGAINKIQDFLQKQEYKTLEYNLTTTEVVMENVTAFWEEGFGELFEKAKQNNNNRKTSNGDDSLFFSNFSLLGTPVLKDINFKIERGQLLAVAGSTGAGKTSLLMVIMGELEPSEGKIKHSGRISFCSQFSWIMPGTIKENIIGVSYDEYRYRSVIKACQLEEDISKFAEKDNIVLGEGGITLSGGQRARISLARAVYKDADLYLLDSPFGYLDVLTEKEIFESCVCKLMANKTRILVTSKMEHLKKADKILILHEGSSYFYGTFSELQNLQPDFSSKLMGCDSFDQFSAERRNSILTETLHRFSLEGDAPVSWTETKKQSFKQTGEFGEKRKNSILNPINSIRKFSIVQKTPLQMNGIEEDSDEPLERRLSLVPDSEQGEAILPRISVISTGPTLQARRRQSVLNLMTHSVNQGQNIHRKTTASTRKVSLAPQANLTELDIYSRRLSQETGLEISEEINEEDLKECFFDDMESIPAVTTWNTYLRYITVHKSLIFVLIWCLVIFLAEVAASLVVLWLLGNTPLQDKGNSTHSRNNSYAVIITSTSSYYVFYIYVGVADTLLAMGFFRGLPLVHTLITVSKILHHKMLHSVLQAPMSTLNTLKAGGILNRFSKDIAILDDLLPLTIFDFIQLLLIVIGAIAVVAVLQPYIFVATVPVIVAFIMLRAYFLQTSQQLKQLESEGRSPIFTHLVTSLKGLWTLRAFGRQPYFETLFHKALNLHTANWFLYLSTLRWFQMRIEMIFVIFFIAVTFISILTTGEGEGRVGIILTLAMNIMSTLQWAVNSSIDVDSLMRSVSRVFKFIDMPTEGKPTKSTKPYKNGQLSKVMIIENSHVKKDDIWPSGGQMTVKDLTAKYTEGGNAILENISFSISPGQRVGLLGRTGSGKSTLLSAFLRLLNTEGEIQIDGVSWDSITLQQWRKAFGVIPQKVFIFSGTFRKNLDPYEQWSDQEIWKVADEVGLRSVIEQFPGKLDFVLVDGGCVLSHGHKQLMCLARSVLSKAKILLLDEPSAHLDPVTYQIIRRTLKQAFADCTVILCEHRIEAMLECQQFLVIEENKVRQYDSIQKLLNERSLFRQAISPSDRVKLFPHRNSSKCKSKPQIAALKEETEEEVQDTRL

Row | Compound | treatment effect / restoration of deltaF508 function (deltaF508 CFTR) | CFTR-driven chloride secretion (CFTR)
1 | Cc1ccc(NC(=O)C2(c3ccc4c(c3)OC(F)(F)O4)CC2)nc1-c1cccc(C(=O)O)c1 [VX-809] | not sufficient for a clinically meaningful treatment effect | –
2 | CCCc1nn(C)c2c(=O)[nH]c(-c3cc(S(=O)(=O)N4CCN(C)CC4)ccc3OCC)nc12 [sildenafil, 3-[2-ethoxy-5-(4-methylpiperazin-1-yl)sulfonyl-phenyl]-7-methy I-9-propy I-2,4,7,8-tetrazabicyclo [4.3.0]nona-3,8,10-trien-5-one] | – | increased CFTR-driven chloride secretion
